Source: patent US10344019B2 (priority 2010, dated 2019)
Like-named read-outs stand apart in the source and are kept apart here.

Tests used:
Test in all cases: microbe, parasite or virus in culture
Assay type in all cases: cell-based
[1] = test system: HCV 3a RLuc cells (NS5A chimeric genotype 1b Con1 replicon with consensus genotype 3a NS5A gene); settings: Hepatitis C virus
Method: (§1) Evaluation of cell-based anti-HCV activity: Antiviral potency (EC50) was determined using a Renilla luciferase (RLuc)-based HCV replicon reporter assay. To perform the assay for genotype 1 and 2a JFH-1, HCV 1b RLuc cells (harboring a dicistronic genotype 1b Con1 replicon that encodes a RLuc reporter), or HCV 1a RLuc cells (harboring a dicistronic genotype 1a H77 replicon that encodes a RLuc reporter), or HCV 2a JFH-1 Rluc cells (harboring a dicistronic genotype 2a JFH-1 replicon that encodes a RLuc reporter) were dispensed into 384-well plates. To perform the assay for genotype 2a (with M31 present) or 2b, HCV 2a Rluc or 2b Rluc cells (both with M31 present) harboring a dicistronic NS5A chimeric genotype 2a JFH-1 replicon that encodes a RLuc reporter and either genotype 2a J6 strain NS5A gene or genotype 2b MD2b-1 NS5A gene (based on Los Alamos HCV database isolates, both with M31 present) respectively, were dispensed into 384-well plates. To perform the assay for genotype 3 and 4, HCV 3a RLuc or 4a Rluc cells harboring a dicistronic NS5A chimeric genotype 1b Con1 replicon that encodes a RLuc reporter and either a consensus genotype 3a NS5A gene or genotype 4a NS5A gene (based on Los Alamos HCV database isolates) respectively, were dispensed into 384-well plates. Compounds were re-suspended in DMSO at a concentration of 10 mM and serially diluted in DMSO either manually or using an automated pipeting instrument. Serially diluted compounds were mixed with cell culture media and added to the seeded cells. […] 72 hours later, cells were lysed and Renilla luciferase activity quantified as recommended by the manufacturer (Promega-Madison, Wis.). Non-linear regression was performed to calculate EC50 values.

[2] = test system: HCV 4a Rluc cells (NS5A chimeric genotype 1b Con1 replicon with genotype 4a NS5A gene); settings: Hepatitis C virus, read-out: 4a
Method: as §1

[3] = test system: HCV 2a JFH-1 Rluc cells (dicistronic genotype 2a JFH-1 replicon, RLuc reporter); settings: Hepatitis C virus, genotype 2a JFH-1 replicon, read-out: 2a JFH
Method: as §1

[4] = test system: HCV 1a RLuc cells (dicistronic genotype 1a H77 replicon, RLuc reporter); settings: Hepatitis C virus, read-out: 1a
Method: as §1

[5] = test system: HCV 1b RLuc cells (dicistronic genotype 1b Con1 replicon, RLuc reporter); settings: Hepatitis C virus, read-out: 1b (nM)
Method: as §1

[6] = read-out: 3a, Table 2, genotype 3a NS5A chimeric replicon
[7] = 72 h, Table 2, genotype 1a H77 replicon, 72 hours
[8] = read-out: 3a, genotype 3a replicon

Compound | EC50 [1, 6] [nM] | EC50 [2] [nM] | EC50 ([3]; 72 h, Table 2, 72 hours) [nM] | EC50 [4, 7] [nM] | EC50 ([5]; 72 h) [nM] | EC50 [1, 8] [nM] | EC50 [3] [nM] | EC50 ([4]; genotype 1a replicon) [nM] | EC50 [5] [nM] | EC50 ([1]; read-out: 3a, genotype 3a NS5A chimeric 1b Con1 replicon) [nM] | EC50 ([3]; RLuc reporter) [nM] | EC50 ([4]; genotype 1a H77 replicon, RLuc reporter) [nM]
COC(=O)N[C@H](C(=O)N1CCC[C@H]1c1nc2ccc3cc(-c4ccc(-c5cnc([C@@H]6[C@H]7CC[C@H](C7)N6C(=O)[C@@H](NC(=O)OC)[C@@H](C)OC)[nH]5)c(F)c4)ccc3c2[nH]1)C(C)C [Example 100] | 0.001 to 0.99 | 0.001 to 0.99 | 0.001 to 0.999 | 0.001 to 0.999 | 0.004 | – | – | – | – | – | – | –
CC#Cc1cc(-c2cnc([C@@H]3[C@H]4CC[C@H](C4)N3C(=O)[C@@H](NC(=O)OC)C(C)C)[nH]2)ccc1-c1ccc(-c2cnc([C@@H]3CCCN3C(=O)[C@@H](NC(=O)OC)C(C)C)[nH]2)cc1 [Example 329] | – | 0.001 to 0.99 | – | – | – | 1 to 4.99 | 0.001 to 0.999 | 0.001 to 0.999 | 0.008 | – | – | –
COC(=O)NC(C(=O)N1CCC[C@@H]1c1nc(-c2ccc3c(c2)C(F)(F)c2cc(-c4ccc5nc([C@@H]6[C@H]7CC[C@H](C7)N6C(=O)[C@H](NC(=O)OC)c6ccccc6)[nH]c5c4)ccc2-3)c[nH]1)[C@@H](C)OC (stereo partly shown) [Example 81] | 0.001 to 0.99 | 0.001 to 0.99 | 0.001 to 0.999 | 0.001 to 0.999 | 0.006 | – | – | – | – | – | – | –
COC(=O)N[C@H](C(=O)N1CCC[C@H]1c1nc2ccc3cc(-c4ccc5cc(-c6cnc([C@@H]7[C@H]8CC[C@H](C8)N7C(=O)[C@H](NC(=O)OC)c7ccccc7)[nH]6)ccc5c4)ccc3c2[nH]1)C1CCOCC1 [Example 84] | 0.001 to 0.99 | 0.001 to 0.99 | 0.001 to 0.999 | 0.001 to 0.999 | 0.007 | – | – | – | – | – | – | –
COC(=O)N[C@H](C(=O)N1CC2(C[C@H]1c1ncc(-c3ccc(-c4ccc5c(ccc6nc([C@@H]7CCCN7C(=O)[C@H](NC(=O)OC)c7ccccc7)[nH]c65)c4)cc3)[nH]1)OCCO2)C(C)C [Example 354] | – | 0.001 to 0.99 | – | – | – | 0.001 to 0.99 | 0.001 to 0.999 | 0.001 to 0.999 | 0.031 | – | – | –
COC(=O)N[C@H](C(=O)N1CCC[C@H]1c1nc(-c2ccc3c(c2)C(F)(F)c2cc(-c4ccc5nc([C@@H]6CCCN6C(=O)[C@@H](NC(=O)OC)C6CCOCC6)[nH]c5c4)ccc2-3)c[nH]1)C(C)C [Example 220] | – | 0.001 to 0.99 | – | – | – | – | – | – | 0.011 | 1 to 4.99 | 0.001 to 0.999 | 0.001 to 0.999
COC(=O)N[C@H](C(=O)N1CCC[C@H]1c1ncc(-c2ccc(-c3ccc4c(ccc5nc([C@@H]6CC7(CN6C(=O)[C@@H](NC(=O)OC)[C@@H](C)OC)OCCO7)[nH]c54)c3)cc2)[nH]1)C(C)C [Example 90] | 1 to 4.99 | 0.001 to 0.99 | 0.001 to 0.999 | 0.001 to 0.999 | 0.044 | – | – | – | – | – | – | –
COC(=O)N[C@H](C(=O)N1CCC[C@H]1c1ncc(-c2ccc3c4ccc(-c5cnc([C@@H]6CCCN6C(=O)[C@@H](NC(=O)OC)C6CCOCC6)[nH]5)cc4c4ccccc4c3c2)[nH]1)C1CCOCC1 [Example 309] | – | 0.001 to 0.99 | – | – | – | 0.001 to 0.99 | 0.001 to 0.999 | 0.001 to 0.999 | 0.219 | – | – | –
COC(=O)N[C@H](C(=O)N1[C@@H]2CC[C@@H](C2)[C@H]1c1ncc(-c2ccc3cc(-c4ccc5c(ccc6nc([C@@H]7CCCN7C(=O)[C@H](NC(=O)OC)c7ccccc7)[nH]c65)c4)ccc3c2)[nH]1)C1CCOCC1 [Example 101] | 0.001 to 0.99 | 0.001 to 0.99 | 0.001 to 0.999 | 0.001 to 0.999 | 0.011 | – | – | – | – | – | – | –
COC(=O)N[C@@H](C(=O)N1[C@@H]2CC[C@@H](C2)[C@H]1c1ncc(-c2ccc(-c3ccc4c(ccc5nc([C@@H]6C[C@H]7C[C@H]7N6C(=O)[C@H](NC(=O)OC)c6ccccc6)[nH]c54)c3)cc2)[nH]1)c1ccccc1 [Example 334] | – | 0.001 to 0.99 | – | – | – | 0.001 to 0.99 | 0.001 to 0.999 | 0.001 to 0.999 | 0.009 | – | – | –
COC(=O)N[C@H](C(=O)N1[C@@H]2CC[C@@H](C2)[C@H]1c1nc2c([nH]1)-c1ccc(-c3ccc4c(ccc5nc([C@@H]6CCCN6C(=O)[C@@H](NC(=O)OC)C6CCOCC6)[nH]c54)c3)cc1CC2)C(C)C [Example 291] | – | 0.001 to 0.99 | – | – | – | 0.001 to 0.99 | 0.001 to 0.999 | 0.001 to 0.999 | 0.103 | – | – | –
